The term AC50 denotes the concentration at which the activity in the assay is half-maximal. Low values mean activity at low concentration, high ones activity only at high concentration.

The results in this text go back to ChEMBL document CHEMBL5291721, “A preclinical secondary pharmacology resource illuminates target-adverse drug reaction associations of marketed drugs” (Nat Commun, 2023).

Experiment [1] concerns the target T1, Peroxisome proliferator-activated receptor alpha (Homo sapiens, UniProt Q07869).
T1 sequence (Q07869 whole entry): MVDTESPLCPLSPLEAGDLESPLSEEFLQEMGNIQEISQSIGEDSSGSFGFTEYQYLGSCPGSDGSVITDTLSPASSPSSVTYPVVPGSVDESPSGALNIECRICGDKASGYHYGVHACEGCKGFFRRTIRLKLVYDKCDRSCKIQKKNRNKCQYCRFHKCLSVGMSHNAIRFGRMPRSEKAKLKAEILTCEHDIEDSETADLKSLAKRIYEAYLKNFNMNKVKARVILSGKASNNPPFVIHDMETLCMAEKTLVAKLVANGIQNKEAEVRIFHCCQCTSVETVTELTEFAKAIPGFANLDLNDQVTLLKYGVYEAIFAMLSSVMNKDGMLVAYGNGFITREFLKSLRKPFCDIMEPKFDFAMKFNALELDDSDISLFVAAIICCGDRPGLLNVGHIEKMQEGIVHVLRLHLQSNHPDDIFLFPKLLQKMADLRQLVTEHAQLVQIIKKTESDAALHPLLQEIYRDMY
Format: functional.

The target of experiment [2] is T2, Thromboxane A2 receptor (Homo sapiens, UniProt P21731).
T2 sequence (P21731 whole entry): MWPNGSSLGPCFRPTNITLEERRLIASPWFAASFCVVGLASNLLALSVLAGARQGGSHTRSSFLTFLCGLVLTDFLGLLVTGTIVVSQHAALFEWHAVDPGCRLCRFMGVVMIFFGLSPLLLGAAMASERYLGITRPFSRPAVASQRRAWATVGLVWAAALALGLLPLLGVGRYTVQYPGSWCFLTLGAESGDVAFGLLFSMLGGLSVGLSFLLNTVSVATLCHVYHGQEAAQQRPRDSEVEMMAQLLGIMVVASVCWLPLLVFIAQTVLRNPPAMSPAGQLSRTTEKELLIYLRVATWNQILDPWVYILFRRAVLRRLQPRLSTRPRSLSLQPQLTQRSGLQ
Format: functional, cell-based.

Experiment [3] has as its target Vascular endothelial growth factor receptor 2 (Homo sapiens, UniProt P35968). Format: functional.
Experiment [4] has as its target T3, Alpha-1A adrenergic receptor (Homo sapiens, UniProt P35348).
T3 sequence (P35348 whole entry): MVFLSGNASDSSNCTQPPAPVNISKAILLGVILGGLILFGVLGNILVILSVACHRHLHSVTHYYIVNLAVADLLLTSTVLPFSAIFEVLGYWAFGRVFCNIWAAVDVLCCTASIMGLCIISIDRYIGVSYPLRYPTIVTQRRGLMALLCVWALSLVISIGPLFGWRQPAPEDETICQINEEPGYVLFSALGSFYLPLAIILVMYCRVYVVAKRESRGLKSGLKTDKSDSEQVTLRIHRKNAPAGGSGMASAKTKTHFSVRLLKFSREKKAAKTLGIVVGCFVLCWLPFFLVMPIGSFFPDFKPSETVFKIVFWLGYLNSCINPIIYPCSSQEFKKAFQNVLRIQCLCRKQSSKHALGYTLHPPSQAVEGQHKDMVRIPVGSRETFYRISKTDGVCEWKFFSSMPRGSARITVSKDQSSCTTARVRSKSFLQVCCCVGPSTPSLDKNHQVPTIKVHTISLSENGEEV
Format: functional, cell-based.

For experiment [5], the target named is T4, Androgen receptor (Homo sapiens, UniProt P10275).
T4 sequence (P10275 whole entry): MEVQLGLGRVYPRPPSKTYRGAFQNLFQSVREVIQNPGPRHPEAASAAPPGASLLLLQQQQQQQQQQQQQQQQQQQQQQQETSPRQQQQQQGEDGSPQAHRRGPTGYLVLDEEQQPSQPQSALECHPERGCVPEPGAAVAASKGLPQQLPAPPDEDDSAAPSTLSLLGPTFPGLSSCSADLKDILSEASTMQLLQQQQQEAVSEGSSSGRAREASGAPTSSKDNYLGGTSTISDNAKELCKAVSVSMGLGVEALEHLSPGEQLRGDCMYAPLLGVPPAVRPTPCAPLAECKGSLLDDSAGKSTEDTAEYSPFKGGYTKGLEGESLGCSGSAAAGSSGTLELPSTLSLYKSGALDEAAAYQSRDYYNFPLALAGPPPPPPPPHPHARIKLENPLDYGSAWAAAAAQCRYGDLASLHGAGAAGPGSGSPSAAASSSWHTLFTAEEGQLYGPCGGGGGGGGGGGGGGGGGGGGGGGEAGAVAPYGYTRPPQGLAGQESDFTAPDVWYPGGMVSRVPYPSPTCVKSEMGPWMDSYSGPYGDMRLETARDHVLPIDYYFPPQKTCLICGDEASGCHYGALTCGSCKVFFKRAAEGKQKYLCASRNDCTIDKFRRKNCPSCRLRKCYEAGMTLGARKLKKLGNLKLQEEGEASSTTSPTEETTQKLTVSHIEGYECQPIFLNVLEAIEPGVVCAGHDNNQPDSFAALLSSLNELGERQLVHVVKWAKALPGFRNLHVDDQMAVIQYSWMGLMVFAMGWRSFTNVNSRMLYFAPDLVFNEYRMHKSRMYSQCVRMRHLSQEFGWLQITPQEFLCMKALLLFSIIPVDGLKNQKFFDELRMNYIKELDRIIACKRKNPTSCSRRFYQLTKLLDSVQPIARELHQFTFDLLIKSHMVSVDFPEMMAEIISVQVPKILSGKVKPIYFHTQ

The target in experiment [6] is T5, Estrogen receptor (Homo sapiens, UniProt P03372).
T5 sequence (P03372 whole entry): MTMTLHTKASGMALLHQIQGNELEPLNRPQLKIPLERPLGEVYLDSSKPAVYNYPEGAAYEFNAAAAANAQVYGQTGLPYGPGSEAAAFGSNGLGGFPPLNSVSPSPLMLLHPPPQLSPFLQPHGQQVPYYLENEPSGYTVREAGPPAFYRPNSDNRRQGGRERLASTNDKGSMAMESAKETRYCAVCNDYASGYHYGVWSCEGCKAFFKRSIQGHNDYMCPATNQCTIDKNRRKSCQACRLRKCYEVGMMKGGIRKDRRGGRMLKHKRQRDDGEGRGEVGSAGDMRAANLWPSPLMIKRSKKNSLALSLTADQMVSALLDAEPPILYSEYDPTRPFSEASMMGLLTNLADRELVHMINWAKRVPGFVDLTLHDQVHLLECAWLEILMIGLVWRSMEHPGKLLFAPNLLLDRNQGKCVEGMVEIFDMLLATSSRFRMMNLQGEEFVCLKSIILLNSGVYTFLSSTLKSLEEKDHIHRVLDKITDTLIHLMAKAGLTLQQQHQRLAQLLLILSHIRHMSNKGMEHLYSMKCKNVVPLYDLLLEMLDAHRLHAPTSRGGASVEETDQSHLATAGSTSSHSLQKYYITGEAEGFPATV
Format: functional.

The structures appear in SMILES notation.
Note: assay procedure not described here.

Sequence of Vascular endothelial growth factor receptor 2 (P35968 whole entry): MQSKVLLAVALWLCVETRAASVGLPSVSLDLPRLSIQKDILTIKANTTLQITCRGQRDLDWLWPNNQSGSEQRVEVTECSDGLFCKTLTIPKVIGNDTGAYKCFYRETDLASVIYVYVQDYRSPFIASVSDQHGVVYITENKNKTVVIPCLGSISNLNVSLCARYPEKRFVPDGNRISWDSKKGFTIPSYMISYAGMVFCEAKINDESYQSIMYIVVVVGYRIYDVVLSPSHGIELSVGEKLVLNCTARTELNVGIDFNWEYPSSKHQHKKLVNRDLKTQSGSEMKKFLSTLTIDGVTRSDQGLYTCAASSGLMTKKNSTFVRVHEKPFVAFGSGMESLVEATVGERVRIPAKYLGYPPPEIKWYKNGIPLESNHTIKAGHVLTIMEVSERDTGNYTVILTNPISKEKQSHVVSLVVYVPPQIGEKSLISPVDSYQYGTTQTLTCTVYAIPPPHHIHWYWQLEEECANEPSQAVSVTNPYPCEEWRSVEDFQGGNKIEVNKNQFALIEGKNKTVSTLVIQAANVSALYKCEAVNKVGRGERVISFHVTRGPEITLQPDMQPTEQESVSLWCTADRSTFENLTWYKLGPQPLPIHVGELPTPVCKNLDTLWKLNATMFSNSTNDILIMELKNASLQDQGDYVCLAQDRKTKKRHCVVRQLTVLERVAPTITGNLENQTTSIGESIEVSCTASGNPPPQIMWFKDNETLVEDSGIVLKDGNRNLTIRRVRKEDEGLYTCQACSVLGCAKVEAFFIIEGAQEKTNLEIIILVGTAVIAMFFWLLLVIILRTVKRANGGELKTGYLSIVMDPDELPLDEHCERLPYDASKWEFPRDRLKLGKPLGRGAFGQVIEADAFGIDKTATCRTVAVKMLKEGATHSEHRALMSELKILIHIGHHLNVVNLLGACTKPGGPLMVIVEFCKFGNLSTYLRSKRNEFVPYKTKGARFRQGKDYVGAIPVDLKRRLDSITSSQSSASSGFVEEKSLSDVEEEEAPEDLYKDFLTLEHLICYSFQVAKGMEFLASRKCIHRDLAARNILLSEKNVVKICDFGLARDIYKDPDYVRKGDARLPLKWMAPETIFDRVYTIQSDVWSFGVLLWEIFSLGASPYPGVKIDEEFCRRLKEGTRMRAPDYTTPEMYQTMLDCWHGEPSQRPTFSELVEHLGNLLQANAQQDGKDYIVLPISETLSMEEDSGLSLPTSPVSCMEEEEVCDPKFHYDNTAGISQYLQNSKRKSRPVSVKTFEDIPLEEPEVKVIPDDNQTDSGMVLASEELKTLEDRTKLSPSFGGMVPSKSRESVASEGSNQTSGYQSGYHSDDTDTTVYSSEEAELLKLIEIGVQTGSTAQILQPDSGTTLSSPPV

For `CCOC(=O)C(C)(C)Oc1ccc(Cl)cc1` [CLOFIBRATE], the concentration at half-maximal activity (AC50) in experiment [1] was over 30 µM.

Take `CCN(CC)CCCC(C)Nc1c2ccc(Cl)cc2nc2ccc(OC)cc12` (stereo unspecified) [QUINACRINE]: the AC50 was over 1000 nM in experiment [2], over 30 µM in experiment [3], over 1000 nM in experiment [4] and over 30 µM in experiment [5].

As to `CCOC(=O)[C@@H](N)Cc1ccc(-c2cc(O[C@H](c3ccc(Cl)cc3-n3ccc(C)n3)C(F)(F)F)nc(N)n2)cc1` [TELOTRISTAT ETHYL], the AC50 in experiment [6] was over 30 µM.
